System: rat
Experiment: measurement of the cauda equina blood flow and the blood pressure in urethane-anesthetized rat
Format: in vivo
Conditions: continuous infusion through caudal vein for 30 minutes, dose not given; for the increase rate of the cauda equina blood flow: observed until 30 minutes after, laser-Doppler flowmetry; for decrease of the blood pressure: systemic blood pressure from left carotid artery
Method: The common procedure based on the fundamental biological means was used as all procedures. Furthermore, the measuring method of the present invention was modified to improve the accuracy and/or sensitivity of measurement for evaluating the compound of the present invention. The detailed experimental method was as follows. • (i) The measurement of the cauda equina blood flow and the blood pressure Experiment: 1.5g/kg of urethane was administered intraperitoneally to the rat to be anesthetized, and the catheter, which is for measurement of blood pressure and ventricular rate, was placed in left carotid artery in supine position. The rat was reversed to prone position and the lumbar part was incised in the median line. The laminectomy was given to the fifth lumbar vertebra and the spinal cord (cauda equina) was exposed. The cauda equina blood flow was measured by the laser-Doppler flowmetry (OMEGAFLD FLO-NI and ADVANCE LASER FLOWMETER ALF21N, OMEGA WAVE Inc.) through a noncontact probe (ST-N type, OMEGA WAVE Inc.) and recorded with LINEARCORDER (Graphtech). The systemic blood pressure and the ventricular rate were measured from a left carotid artery with amplifier for the pressure measurement (GOULD) through a pressure transducer and recorded with LINEARCORDER (Graphtech).
After confirming each parameter of blood pressure, ventricular rate and blood flow was stabilized, the test compound was administrated by continuous infusion through the winged needle placed in caudal vein for 30 minutes. It observed until 30 minutes after the administration and the increase rate of the cauda equina blood flow was calculated. The increase rate of the cauda equina blood flow (%)=(B−A)/A×100 • A: the cauda equina blood flow before the administration of the test compound • B: the cauda equina blood flow after the administration of the test compound

| Compound | the increase rate of the cauda equina blood flow | decrease of the blood pressure |
| --- | --- | --- |
| O=C(O)c1csc(SCCN2C(=O)OC[C@@H]2/C=C/[C@@H](O)C2(CCCCF)CCC2)n1 [compound 8-1, 2-{[2-((4S)-4-{(1E,3R)-3-[1-(4-fluorobutyl)cyclobutyl]-3-hydroxy-1-propenyl}-2-oxo-1,3-oxazolidin-3-yl)ethyl]sulfanyl}-1,3-thiazole-4-carboxylic acid] | 35% | 6 mmHg |
| CC(O)(C/C=C/[C@H]1CCC(=O)[C@@H]1CCSc1nc(C(=O)O)cs1)CC1CCCCC1 (stereo partly drawn) [compound 53, 2-[(2-{(1R,2R)-2-[(1E)-5-cyclohexyl-4-hydroxy-4-methyl-1-pentenyl]-5-oxocyclopentyl}ethyl)sulfanyl]-1,3-thiazole-4-carboxylic acid] | 31% | 10 mmHg |
